Data reported in ChEMBL document CHEMBL1139622, “Discovery of potent and selective orally bioavailable beta-substituted phenylalanine derived dipeptidyl peptidase IV inhibitors” (Bioorg Med Chem Lett, 2005).

Experiments:
Dipeptidyl peptidase 9 = Dipeptidyl peptidase 9 (Homo sapiens, UniProt Q86TI2)
Description: Inhibitory concentration against dipeptidylpeptidase 9

Dipeptidyl peptidase 4 [1] = biological target: Dipeptidyl peptidase 4 (Homo sapiens, UniProt P27487)
Description: Inhibitory concentration against dipeptidylpeptidase IV

Dipeptidyl peptidase 2 = Dipeptidyl peptidase 2 (Homo sapiens, UniProt Q9UHL4)
Description: Inhibitory concentration against dipeptidylpeptidase II (QPP)

in vivo = conditions: rat
[2] = Plasma clearance in rat; type: ADME, organism-based; conditions: read-out: Clp
[3] = Half-life in rat; type: ADME; conditions: in vivo
Dipeptidyl peptidase 8 = Dipeptidyl peptidase 8 (Homo sapiens, UniProt Q6V1X1)
Description: Inhibitory concentration against dipeptidylpeptidase 8

Dipeptidyl peptidase 4 [4] = biological target: T1, Dipeptidyl peptidase 4 (Mus musculus, UniProt P28843); assay: Inhibitory concentration against mouse dipeptidylpeptidase IV in presence of 3% mouse serum
[5] = Half-life in rhesus monkey; type: ADME; conditions: cercopithecidae, in vivo
[6] = Plasma clearance in dog; type: ADME, organism-based, Canis lupus familiaris; conditions: read-out: Clp
Dipeptidyl peptidase 4 [7] = biological target: T1, Dipeptidyl peptidase 4; assay: Inhibitory concentration against mouse dipeptidylpeptidase IV in presence of 50% mouse serum
[8] = Half-life in dog; type: ADME, Canis lupus familiaris; conditions: in vivo
Dipeptidyl peptidase 4 [9] = biological target: T1, Dipeptidyl peptidase 4; assay: Inhibitory concentration against mouse dipeptidylpeptidase IV in presence of 15% mouse serum
[10] = Plasma clearance in rhesus monkey; type: ADME, organism-based; conditions: cercopithecidae, read-out: Clp
[11] = Half -life in rat; type: ADME; conditions: in vivo

Dipeptidyl peptidase 8, sequence (Q6V1X1 whole entry): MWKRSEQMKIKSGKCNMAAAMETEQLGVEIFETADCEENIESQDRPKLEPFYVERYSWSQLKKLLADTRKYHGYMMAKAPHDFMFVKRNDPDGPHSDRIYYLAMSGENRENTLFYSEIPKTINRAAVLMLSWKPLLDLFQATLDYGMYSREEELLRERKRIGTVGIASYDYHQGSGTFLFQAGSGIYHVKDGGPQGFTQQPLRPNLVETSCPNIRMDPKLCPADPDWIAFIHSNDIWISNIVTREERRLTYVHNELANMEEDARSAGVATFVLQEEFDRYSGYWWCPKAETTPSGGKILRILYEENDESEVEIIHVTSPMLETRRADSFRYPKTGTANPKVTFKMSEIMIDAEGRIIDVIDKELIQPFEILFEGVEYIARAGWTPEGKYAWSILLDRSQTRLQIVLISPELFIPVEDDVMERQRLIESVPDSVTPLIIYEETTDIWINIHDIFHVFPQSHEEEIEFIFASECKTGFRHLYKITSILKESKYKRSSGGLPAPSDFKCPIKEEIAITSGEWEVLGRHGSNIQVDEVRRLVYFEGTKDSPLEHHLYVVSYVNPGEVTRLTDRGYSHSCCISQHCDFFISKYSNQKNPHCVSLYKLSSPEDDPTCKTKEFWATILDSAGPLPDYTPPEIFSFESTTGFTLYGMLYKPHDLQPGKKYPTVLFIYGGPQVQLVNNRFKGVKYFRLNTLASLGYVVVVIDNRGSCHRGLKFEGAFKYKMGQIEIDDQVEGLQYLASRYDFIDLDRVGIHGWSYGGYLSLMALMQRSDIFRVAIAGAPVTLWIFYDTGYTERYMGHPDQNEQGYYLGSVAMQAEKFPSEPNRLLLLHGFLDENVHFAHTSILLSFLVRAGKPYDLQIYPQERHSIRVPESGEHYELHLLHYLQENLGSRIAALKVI
T1 sequence (P28843 whole entry): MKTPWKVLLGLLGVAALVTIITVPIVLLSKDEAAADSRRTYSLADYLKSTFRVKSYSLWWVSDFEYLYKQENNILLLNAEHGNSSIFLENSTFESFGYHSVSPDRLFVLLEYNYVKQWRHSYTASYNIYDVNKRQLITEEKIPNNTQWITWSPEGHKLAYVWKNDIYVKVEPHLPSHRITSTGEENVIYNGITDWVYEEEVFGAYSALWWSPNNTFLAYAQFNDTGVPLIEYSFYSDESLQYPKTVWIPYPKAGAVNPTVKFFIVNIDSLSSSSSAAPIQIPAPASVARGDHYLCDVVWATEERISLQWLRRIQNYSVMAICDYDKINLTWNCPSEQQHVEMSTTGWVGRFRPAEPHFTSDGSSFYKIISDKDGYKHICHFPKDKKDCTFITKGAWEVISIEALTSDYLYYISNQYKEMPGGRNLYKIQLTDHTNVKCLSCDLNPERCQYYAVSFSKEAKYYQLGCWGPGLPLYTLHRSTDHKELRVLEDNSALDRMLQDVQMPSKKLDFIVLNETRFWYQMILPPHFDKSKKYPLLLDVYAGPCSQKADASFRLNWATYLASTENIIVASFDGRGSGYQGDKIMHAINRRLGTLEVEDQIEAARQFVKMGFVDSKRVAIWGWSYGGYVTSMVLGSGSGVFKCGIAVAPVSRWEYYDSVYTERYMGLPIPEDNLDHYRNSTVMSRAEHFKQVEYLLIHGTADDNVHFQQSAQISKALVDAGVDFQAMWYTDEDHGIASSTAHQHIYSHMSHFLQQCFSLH
Dipeptidyl peptidase 9, sequence (Q86TI2 whole entry): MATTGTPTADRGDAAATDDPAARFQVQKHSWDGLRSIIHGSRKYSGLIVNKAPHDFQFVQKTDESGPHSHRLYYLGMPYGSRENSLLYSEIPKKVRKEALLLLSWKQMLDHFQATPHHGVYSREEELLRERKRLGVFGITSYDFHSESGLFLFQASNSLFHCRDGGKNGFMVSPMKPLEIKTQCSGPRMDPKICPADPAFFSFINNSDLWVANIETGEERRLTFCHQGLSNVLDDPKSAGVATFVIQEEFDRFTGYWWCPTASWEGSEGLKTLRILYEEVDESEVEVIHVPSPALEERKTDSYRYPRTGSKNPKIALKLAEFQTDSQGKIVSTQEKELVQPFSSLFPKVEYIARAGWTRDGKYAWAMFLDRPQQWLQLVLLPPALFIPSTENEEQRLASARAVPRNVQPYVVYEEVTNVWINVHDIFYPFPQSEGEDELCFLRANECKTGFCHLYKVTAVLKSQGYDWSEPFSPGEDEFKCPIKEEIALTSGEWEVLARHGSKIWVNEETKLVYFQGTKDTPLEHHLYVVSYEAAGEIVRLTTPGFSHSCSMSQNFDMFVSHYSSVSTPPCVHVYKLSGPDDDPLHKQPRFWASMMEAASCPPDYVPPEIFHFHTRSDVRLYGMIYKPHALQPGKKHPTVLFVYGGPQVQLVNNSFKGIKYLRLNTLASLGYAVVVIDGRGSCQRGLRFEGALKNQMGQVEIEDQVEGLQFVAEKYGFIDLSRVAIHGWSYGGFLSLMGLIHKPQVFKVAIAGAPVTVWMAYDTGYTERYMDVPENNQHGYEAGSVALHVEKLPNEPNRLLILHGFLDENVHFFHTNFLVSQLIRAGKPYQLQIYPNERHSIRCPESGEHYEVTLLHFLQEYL
Dipeptidyl peptidase 4 (Homo sapiens, UniProt P27487), sequence (P27487 whole entry): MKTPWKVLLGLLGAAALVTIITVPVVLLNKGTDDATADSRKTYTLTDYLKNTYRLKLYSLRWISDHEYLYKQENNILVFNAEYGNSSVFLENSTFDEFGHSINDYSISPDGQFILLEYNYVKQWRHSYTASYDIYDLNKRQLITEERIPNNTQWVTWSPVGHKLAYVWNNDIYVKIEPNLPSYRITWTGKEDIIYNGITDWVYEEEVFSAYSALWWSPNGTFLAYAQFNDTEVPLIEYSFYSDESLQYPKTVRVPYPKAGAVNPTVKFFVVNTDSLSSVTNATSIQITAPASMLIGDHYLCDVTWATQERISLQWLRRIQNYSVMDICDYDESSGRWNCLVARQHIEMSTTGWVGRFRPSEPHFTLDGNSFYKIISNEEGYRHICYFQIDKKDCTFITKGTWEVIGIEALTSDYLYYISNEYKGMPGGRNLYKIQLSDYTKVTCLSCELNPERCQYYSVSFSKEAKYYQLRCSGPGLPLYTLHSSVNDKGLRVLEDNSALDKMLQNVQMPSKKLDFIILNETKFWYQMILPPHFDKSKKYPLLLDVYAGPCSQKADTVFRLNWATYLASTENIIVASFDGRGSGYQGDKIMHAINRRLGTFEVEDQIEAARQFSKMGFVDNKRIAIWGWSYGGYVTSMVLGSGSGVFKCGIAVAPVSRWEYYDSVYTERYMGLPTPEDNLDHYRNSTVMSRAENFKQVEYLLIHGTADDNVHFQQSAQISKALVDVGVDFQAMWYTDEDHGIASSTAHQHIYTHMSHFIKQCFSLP

Row | SMILES | IC50 (Dipeptidyl peptidase 9) | IC50 (Dipeptidyl peptidase 4 [1]) | IC50 (Dipeptidyl peptidase 2) | IC50 (Dipeptidyl peptidase 8) | also measured
1 | N[C@H](C(=O)N1CC[C@H](F)C1)[C@@H](C(=O)N1CCC1)c1ccc(-c2ccc(F)cc2)cc1 | > 100 µM | 0.044 µM | 5.3 µM |  | 
2 | CC(C)NC(=O)[C@@H](c1ccc(-c2ccc(F)cc2)cc1)[C@H](N)C(=O)N1CC[C@H](F)C1 | > 100 µM | 0.099 µM | 76 µM |  | 
3 | CN(C)C[C@@H](c1ccc(-c2ccc(F)cc2)cc1)[C@H](N)C(=O)N1CC[C@H](F)C1 | > 100 µM | 1.6 µM | 2.5 µM |  | 
4 | CCNC(=O)[C@@H](c1ccc(-c2ccc(F)cc2)cc1)[C@H](N)C(=O)N1CC[C@H](F)C1 | > 100 µM | 0.11 µM | 90 µM | > 100 µM | 
5 | N[C@@H](Cc1ccc(-c2ccc(F)cc2)cc1)C(=O)N1CC[C@H](F)C1 | > 100 µM | 0.98 µM | > 100 µM | > 100 µM | 
6 | N[C@H](C(=O)N1CC[C@H](F)C1)[C@@H](CN1CCCC1)c1ccc(-c2ccc(F)cc2)cc1 | > 100 µM | 3.5 µM | 0.7 µM |  | 
7 | CN(C)C(=O)[C@@H](c1ccc(-c2cccc(C#N)c2)cc1)[C@H](N)C(=O)N1CC[C@H](F)C1 |  | 0.043 µM | 57 µM |  | 
8 | N[C@H](C(=O)N1CC[C@H](F)C1)[C@@H](C(=O)NCCO)c1ccc(-c2ccc(F)cc2)cc1 | > 100 µM | 0.094 µM |  |  | 
9 | CNC(=O)[C@@H](c1ccc(-c2ccc(F)cc2)cc1)[C@H](N)C(=O)N1CC[C@H](F)C1 | > 100 µM | 0.037 µM | > 100 µM |  | 
10 | N[C@H](C(=O)N1CC[C@H](F)C1)[C@@H](C(=O)NC1CC1)c1ccc(-c2ccc(F)cc2)cc1 | > 100 µM | 0.071 µM | 55 µM |  | 
11 | CN(C)C(=O)[C@@H](c1ccc(-c2ccc(F)cc2)cc1)[C@H](N)C(=O)N1CCCCC1 | > 100 µM | 0.55 µM | 38 µM | > 100 µM | 
12 | CN(C)C(=O)[C@@H](c1ccc(-c2ccc(F)cc2)cc1)[C@H](N)C(=O)N1CC[C@H](F)C1.O=C(O)C(F)(F)F |  |  |  |  | IC50 (Dipeptidyl peptidase 4 [4]): 0.05 µM; clearance [2]: 4.8 mL/min/kg; half-life [3]: 3.5 h; half-life [5]: 4.7 h; clearance [6]: 1.5 mL/min/kg; IC50 (Dipeptidyl peptidase 4 [7]): 0.23 µM; half-life [8]: 6.1 h; IC50 (Dipeptidyl peptidase 4 [9]): 0.071 µM; clearance [10]: 2.4 mL/min/kg
13 | NC(=O)[C@@H](c1ccc(-c2ccc(F)cc2)cc1)[C@H](N)C(=O)N1CC[C@H](F)C1 | > 100 µM | 0.11 µM | > 100 µM | > 100 µM | 
14 | CN(C)C(=O)[C@@H](c1ccc(-c2cc(F)ccc2F)cc1)[C@H](N)C(=O)N1CC[C@H](F)C1 | > 100 µM | 0.056 µM | 11 µM |  | 
15 | N[C@H](C(=O)N1CC[C@H](F)C1)[C@@H](Cn1cnnn1)c1ccc(-c2ccc(F)cc2)cc1 | > 100 µM | 0.192 µM | > 100 µM | > 100 µM | 
16 | CN(C)C(=O)[C@@H](c1ccc(-c2ccc(F)cc2)cc1)[C@H](N)C(=O)N1CC(F)(F)C1 | > 100 µM | 0.029 µM | 9.4 µM | > 100 µM | 
17 | CCN(CC)C(=O)[C@@H](c1ccc(-c2ccc(F)cc2)cc1)[C@H](N)C(=O)N1CC[C@H](F)C1 | > 100 µM | 0.059 µM | 48 µM |  | 
18 | N[C@H](C(=O)N1CC[C@H](F)C1)[C@@H](CO)c1ccc(-c2ccc(F)cc2)cc1 | > 100 µM | 0.39 µM | 15 µM | > 100 µM | 
19 | CN(C)C(=O)[C@@H](c1ccc(-c2ccc(F)cc2)cc1)[C@H](N)C(=O)N1CCS(=O)(=O)C1 | > 100 µM | 0.23 µM | 75 µM | > 100 µM | 
20 | CN(C)C(=O)[C@@H](c1ccc(-c2ccc(F)cc2)cc1)[C@H](N)C(=O)N1CCC1 | > 100 µM | 0.1 µM | > 100 µM | > 100 µM | 
21 | CON(C)C(=O)[C@@H](c1ccc(-c2ccc(F)cc2)cc1)[C@H](N)C(=O)N1CC[C@H](F)C1 | > 100 µM | 0.045 µM | > 100 µM |  | 
22 | CN(C)C(=O)[C@@H](c1ccc(-c2ccc(F)cc2)cc1)[C@H](N)C(=O)N1CCOCC1 | > 100 µM | 0.52 µM | 77 µM | > 100 µM | 
23 | CN(C)NC(=O)[C@@H](c1ccc(-c2ccc(F)cc2)cc1)[C@H](N)C(=O)N1CC[C@H](F)C1 | > 100 µM | 0.067 µM | > 100 µM |  | 
24 | COC(=O)[C@@H](c1ccc(-c2ccc(F)cc2)cc1)[C@H](N)C(=O)N1CC[C@H](F)C1 | > 100 µM | 0.22 µM | 21 µM | > 100 µM | 

More lines, main results first:

Row | IC50 (Dipeptidyl peptidase 9) | IC50 (Dipeptidyl peptidase 4 [1]) | IC50 (Dipeptidyl peptidase 2) | IC50 (Dipeptidyl peptidase 8) | SMILES | also measured
25 | > 100 µM | 0.013 µM | 15 µM |  | CN(C)C(=O)[C@@H](c1ccc(-c2ccc(F)cc2F)cc1)[C@H](N)C(=O)N1CC[C@H](F)C1 | 
26 | > 100 µM | 0.011 µM | > 100 µM |  | N[C@H](C(=O)N1CC[C@H](F)C1)[C@@H](C(=O)Nn1cnnn1)c1ccc(-c2ccc(F)cc2)cc1.O=C(O)C(F)(F)F | bioavailability (in vivo): < 1%; clearance [2]: 55 mL/min/kg; half-life [3]: 0.2 h
27 |  | 0.0033 µM | 40 µM |  | CN(C)C(=O)[C@@H](c1ccc(-c2ccc(F)cc2)cc1)[C@H](N)C(=O)N1CCC[C@H]1C#N | 
28 |  | 0.021 µM | 44 µM |  | CN(C)C(=O)[C@@H](c1ccc(-c2ccc(F)c(F)c2)cc1)[C@H](N)C(=O)N1CC[C@H](F)C1 | 
29 |  | 0.0075 µM | 26 µM |  | CN(C)C(=O)[C@@H](c1ccc(-c2ccc(F)cc2)cc1)[C@H](N)C(=O)N1CCCC1.O=C(O)C(F)(F)F | bioavailability (in vivo): 100%; clearance [2]: 16 mL/min/kg; half-life [3]: 2 h
30 |  | 0.0091 µM | 8.5 µM |  | CN(C)C(=O)[C@@H](c1ccc(-c2ccc(F)cc2)cc1)[C@H](N)C(=O)N1CCSC1 | 
31 |  | 0.0092 µM | 5.6 µM |  | N[C@H](C(=O)N1CC[C@H](F)C1)[C@@H](C(=O)N1CCCC1)c1ccc(-c2ccc(F)cc2)cc1.O=C(O)C(F)(F)F | bioavailability (in vivo): 21%; clearance [2]: 18 mL/min/kg; half-life [3]: 1.7 h
32 | > 100 µM | 0.0066 µM | > 100 µM | > 100 µM | N[C@H](C(=O)N1CC[C@H](F)C1)[C@@H](C(=O)O)c1ccc(-c2ccc(F)cc2)cc1.O=C(O)C(F)(F)F | bioavailability (in vivo): 16%; clearance [2]: 0.25 mL/min/kg; half-life [11]: 3.1 h
33 |  | 0.027 µM | 7.1 µM |  | CN(C)C(=O)[C@@H](c1ccc(-c2ccc(F)cc2)cc1)[C@H](N)C(=O)N1CCC(F)(F)C1 | 
34 | > 100 µM | 0.0022 µM | 29 µM | > 100 µM | CN(C)C(=O)[C@@H](c1ccc(-c2cccc(-n3cnnn3)c2)cc1)[C@H](N)C(=O)N1CC[C@H](F)C1.O=C(O)C(F)(F)F | bioavailability (in vivo): < 1%; clearance [2]: 18 mL/min/kg; half-life [3]: 0.74 h
35 | > 100 µM | 0.017 µM | 58 µM | > 100 µM | CN(C)C(=O)[C@@H](c1ccc(-c2ccc(F)cc2)cc1)[C@H](N)C(=O)N1CC(F)C1 | 
36 | > 100 µM | 0.021 µM | 81 µM | > 100 µM | CN(C)C(=O)[C@@H](c1ccc(-c2cccc(S(C)(=O)=O)c2)cc1)[C@H](N)C(=O)N1CC[C@H](F)C1 | 
37 | > 100 µM | 0.02 µM | 43 µM |  | CCN(C)C(=O)[C@@H](c1ccc(-c2ccc(F)cc2)cc1)[C@H](N)C(=O)N1CC[C@H](F)C1 | 
38 | > 100 µM | 0.019 µM | 57 µM |  | CN(C)C(=O)[C@@H](c1ccc(-c2cccc(-[n+]3ccccc3)c2)cc1)[C@H](N)C(=O)N1CC[C@H](F)C1 | 
39 |  | 0.02 µM | 89 µM | > 100 µM | CN(C)C(=O)[C@@H](c1ccc(-c2ccc(-[n+]3ccccc3)cc2)cc1)[C@H](N)C(=O)N1CC[C@H](F)C1 | 
